Reference: patent publication US6737059B1, “Methods of inhibiting inflammatory processes and alleviating symptoms associated with multiple sclerosis” (Board of Regents of the University Washington, priority 1992, dated 2004)
“And” between values parts separate entries of the source, which are not always exact repeats. Identical values can stand only once.

What was measured:
[1] = tested on: white blood cell; test: WBC counts in blood of EAE animals; assay type: in vivo, Macaca fascicularis; conditions: individual animals
Description: The hematologic hallmarks of untreated EAE are a progressive leukocytosis and lymphopenia prior to the onset of clinical signs. The leukocytosis can represent as much as a four-fold increase in the number of circulating PMNC and no significant changes in the frequency or absolute numbers of monocytes, eosinophils, or basophils. Following successful treatments of EAE, the absolute numbers of lymphocytes and PMNC return, fairly soon after the initiation of treatment, to pre-sensitization levels. Thus, continuous monitoring of blood leukocytes provides a useful measure of disease progression which complements the clinical evaluation and magnetic resonance imaging.
Blood was drawn on a weekly basis until the onset of clinical disease and then more frequently. One-half ml was sent to the hematology laboratory for WBC and differential counts. The results are set out in Table 3 below providing white blood cell number (×10^3) per mm^3 whole blood.
Two Macaca fascicularis monkeys were then involved in a study to preliminarily determine the ability of mAb 23F2G to alleviate EAE symptoms. The EAE induction procedures were essentially as in Example 1. Two animals, Nos. 89161 and 89186, sensitized to 1.0 mg of purified monkey basic protein and developed hyperacute hemorrhagic EAE 18 and 20 days post sensitization, respectively. Animal 89161 died within 12 hours of onset and before treatment with dexamethasone could be initiated. Animal 89186 was treated for a week with both dexamethasone (3 days at 4 mg/kg, 2 days at 2 mg/kg and 2 days at 1 mg/kg) and mAb 23F2G (7 days at 2 mg/kg, i.v.). The animal improved dramatically with complete resolution of paralysis three days after initiation of treatment. Lesions detected by MRI resolved four days after cessation of treatment and the animal improved dramatically with complete resolution of paralysis. Eight days following cessation of treatment, the animal relapsed and was sacrificed. […] The white blood cell count rose from 22.7×10^3 on the day of clinical onset to 82×10^3 /mm^3 on the last day of treatment.

[2] = tested on: Experimental Allergic Encephalomyelitis (EAE); test: EAE in macaques: clinical evaluation and survival; assay type: in vivo, Macaca fascicularis
Method: Eighteen male monkeys Macaca fascicularis weighing 2-3 kg were sensitized to myelin basic protein (BP) by the intra dermal injection of 0.1 ml of an emulsion containing 5.0 mg of monkey BP and 0.5 mg of heat-killed M. tuberculosis. Each animal was obtained and housed by the Regional Primate Research Center at the University of Washington, Seattle. The Primate Center conforms to the National Institutes of Health Guide for the Care and Use of laboratory Animals. Ten days after sensitization to BP, each animal was outfitted with a femoral catheter and tether to facilitate blood sampling and the administration of treatments or anesthetics for magnetic resonance imaging (MRI). The animals were maintained on intravenous heparin (18 units/hour) to prevent blood clots from forming in the intra venous lines.
The animals were randomly admitted to specific treatment groups before they were sensitized to BP. This was done to schedule MRI and to prevent the severity of clinical signs at the onset from influencing the choice of therapy. Primate Center personnel, responsible for deciding when animals should be treated or sacrificed, were blinded regarding the treatment history of each animal. Table 1 below provides a statement of criteria for determination of clinical signs and grades of EAE in the animals.
At the onset of definite clinical signs (± to +) six EAE animals received a bolus injection of mAb 60.3 (2 mg/kg) and dexamethasone (4 mg/kg). […]. Sever acute EAE occurs in approximately 25 % of animals induced to develop EAE and is caused by edema in areas involving or impinging upon the brain stem or cerebral cortex. Following injection of the bolus, these six animals were treated by continuous infusion of mAb 60.3 (2 mg/kg/day) for seven days. […]. Six control EAE animals were treated only with dexamethasone, following the same protocol outlined above, and six additional controls were treated with continuous infusion of saline.
Animals that improved and/or stabilized as a result of therapy were sacrificed six weeks after the onset of clinical signs. Animals that experienced a clinical relapse (clinical signs ≧++) some time after the cessation of treatment and before six weeks had elapsed, were sacrificed shortly after the onset of the relapse. […] The statistical significance of differences in survival times in each treatment group was determined by two-tailed Student t analysis.
Disease progression was monitored by a combination of clinical evaluation, blood analysis and magnetic resonance imaging. Clinical evaluations were performed twice daily. […]

C[C@@H]1C[C@H]2[C@@H]3CCC4=CC(=O)C=C[C@]4(C)[C@@]3(F)[C@@H](O)C[C@]2(C)[C@@]1(O)C(=O)CO [dexamethasone]
white blood cell number ([1]; Day 2): 3.1 ×10^3 per mm^3 whole blood and 5.4 ×10^3 per mm^3 whole blood | white blood cell number ([1]; Day 4): 3.7 ×10^3 per mm^3 whole blood and 3.6 ×10^3 per mm^3 whole blood | white blood cell number ([1]; Day 7 (end of treatment)): 3.8 ×10^3 per mm^3 whole blood and 7.0 ×10^3 per mm^3 whole blood | white blood cell number ([1]; Day 10): 8.7 ×10^3 per mm^3 whole blood and 10.7 ×10^3 per mm^3 whole blood | white blood cell number ([1]; Day 14): 7.9 ×10^3 per mm^3 whole blood | white blood cell number ([1]; Onset of clinical signs (start of treatment)): 9.6 ×10^3 per mm^3 whole blood and 9.0 ×10^3 per mm^3 whole blood and 14.6 ×10^3 per mm^3 whole blood and 32.2 ×10^3 per mm^3 whole blood and 12.4 ×10^3 per mm^3 whole blood and 16.3 ×10^3 per mm^3 whole blood | white blood cell number ([1]; Presens (baseline before sensitization)): 4.7 ×10^3 per mm^3 whole blood and 6.1 ×10^3 per mm^3 whole blood and 6.7 ×10^3 per mm^3 whole blood and 13.5 ×10^3 per mm^3 whole blood and 8.9 ×10^3 per mm^3 whole blood and 14.1 ×10^3 per mm^3 whole blood | mean survival time ([2]; after onset, group of six EAE macaques): 7 days | survival after onset (range of group) ([2]; group of six EAE macaques): 1 to 17 days | Grade (severity of clinical signs at time of sacrifice) ([2]; individual EAE macaques, 7-day treatment from onset of clinical signs, listed as dex alone): ++ | Survival (days of survival post-onset) ([2]; individual EAE macaques, 7-day treatment from onset of clinical signs, stable animals sacrificed at six weeks (42 days), listed as dex alone): 17 days and 1 days (2×) and 2 days and 13 days and 9 days
